Converted amounts (≈) assume the structure as drawn. Where a SMILES comes first, the peptide text is derived from it.
Legend:
E. coli RNAP = details: cited from earlier work
B. cenocepacia AU24362 = system: B. cenocepacia AU24362; set-up: method as in PMID 35802499; details: spot-on-lawn assay; cited from earlier work
Description: We proceeded to test the antimicrobial activity of the selected variants against two clinical isolates of the Bcc, B. cenocepacia AU0756 and B. cenocepacia AU24362, in broth microdilution assays. […] We revisited these measurements using broth microdilution assays following the Clinical & Laboratory Standards Institute (CLSI) standard.

E. coli MC1061 = assay: Colony-forming units of E. coli MC1061 pUboABC after IPTG induction; format: cell-based; details: wild-type uboA induced, no uboD, three biological replicates
Description: E. coli MC1061 pUboABC and E. coli MC1061 pUboBC cultures were grown. Aliquots of the cultures were sampled prior to and after induction with 10 μM IPTG and 100 μM IPTG, and 10-fold serial dilutions were plated. Colonies were counted 16 h after incubation. […]
fold serial dilutions were spotted onto LB plates supplemented with 100 μ g/m L ampicillin and 0.2% w/v glucose. Plates were incubated for 16 hours at 37 °C before imaging.
Colony- Forming Units of E. coli MC1061 pUboABC and E. coli MC1061 pUboBC pUboABC and pUboBC were transformed into electrocompetent E. coli MC1061, plated onto LB plates supplemented with 100 μ g/ m L ampicillin and 0.2% w/v glucose, and incubated at 37 °C for 16 hours. Single colonies were inoculated into LB media supplemented with 100 μ g/ m L ampicillin and 0.2% w/v glucose and shaken at 37 °C for 16 hours. These cultures were then sub-cultured to an OD600 of 0.02 into 50 mL of LB media supplemented with 100 μg/mL ampicillin in a 250 mL flask. Ten-fold serial dilutions of the culture were plated onto LB plates supplemented with 100 μ g/ m L ampicillin and 0.2% w/v glucose. […] All plates were incubated at 37 °C for 16 hours, after which the number of colonies was counted. […]
A small quantity of DNA was used to reduce the probability of two plasmids being transformed into the same cell. […]

B. cenocepacia AU0756 = system: B. cenocepacia AU0756
In short: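 Ubonodin variants were tested by broth microdilution following CLSI guidelines against clinical Burkholderia cenocepacia isolates AU0756 and AU24362.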

Compound: CC[C@H](C)[C@@H]1NC(=O)[C@H](CO)NC(=O)CNC(=O)[C@H](CC(=O)O)NC(=O)CNC(=O)CNC(=O)CC[C@@H](C(=O)N[C@@H](Cc2ccc(O)cc2)C(=O)N[C@@H](Cc2ccccc2)C(=O)N[C@@H](CC(N)=O)C(=O)N[C@@H](CCCNC(=N)N)C(=O)N2CCC[C@H]2C(=O)N[C@@H](CCSC)C(=O)N[C@@H](Cc2c[nH]cn2)C(=O)N[C@H](C(=O)N[C@@H](Cc2c[nH]cn2)C(=O)N[C@@H](CC(=O)O)C(=O)N[C@@H](Cc2c[nH]c3ccccc23)C(=O)N[C@@H](CCC(N)=O)C(=O)N[C@H](C(=O)N[C@@H](CCSC)C(=O)N[C@@H](CC(=O)O)C(=O)N[C@@H](CO)C(=O)NCC(=O)N[C@@H](Cc2ccc(O)cc2)C(=O)N[C@@H](Cc2ccc(O)cc2)C(=O)NCC(=O)O)[C@@H](C)CC)[C@@H](C)CC)NC(=O)[C@H](C)NC1=O [WT, ubonodin] (HELM PEPTIDE1{G.G.D.G.S.I.A.E.Y.F.N.R.P.M.H.I.H.D.W.Q.I.M.D.S.G.Y.Y.G}$PEPTIDE1,PEPTIDE1,1:R1-8:R3$$$V2.0; C-terminus assumed)
- Inhibition of E. coli RNAP in vitro (E. coli RNAP): inhibits E. coli RNAP in vitro
- MIC against strain AU24362 (B. cenocepacia AU24362): 20 µM (≈ 64 µg/mL)
- Reduction in viable cell concentration (CFU per mL) after IPTG induction (E. coli MC1061): 3 log
- B. cenocepacia AU0756 MIC (B. cenocepacia AU0756): 0.25 to 0.5 µM

From article PMC10037499, “High-Throughput Screen Reveals the Structure–Activity Relationship of the Antimicrobial Lasso Peptide Ubonodin” (ACS Central Science, 2023)
